What was measured:
DNA-PK = DNA-PK (Homo sapiens (Human), UniProt P78527); assay: DNA-PK assay (biochemical), flashplate 33P-ATP kinase assay; settings: biochemical DNA-PK assay
In short: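 Radiometric kinase reaction in streptavidin-coated flashplates, stopped with 200 mM EDTA, then 30 min room-temperature incubation and saline washes.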

[1] = biological target: DNA-PK phosphorylation at serine 2056 (Homo sapiens (Human), UniProt P78527); assay: DNA-PK phosphorylation at serine 2056 (cellular), bleomycin-treated HCT116 cells, ELISA; type: cell-based; settings: cellular DNA-PK phosphorylation at serine 2056, HCT116; read-out: IC50 pDNA-PK
In short: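 After overnight seeding, HCT116 cells received compound with 10 μM bleomycin for 6 h; phospho-DNA-PK ELISA signals were scaled to total DNA-PKcs, DMSO serving as blank.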

Kv11.1 (hERG) [2] = biological target: T1, Kv11.1 (hERG) (Homo sapiens (Human), UniProt Q12809); assay: Kv11.1 ion channel binding assay (Predictor hERG fluorescence polarisation); settings: cells marked *: measured using hERG binding assay instead of hERG patch clamp assay; read-out: Ki [Kv1.11 hERG]
Procedure: D) Kv11.1 Ion Channel Binding Assay
Kv11.1 (hERG=human ether a go-go related […]) is a cardiac K^+ channel which should if possible not interact with the test substances. This interaction is determined quantitatively with the aid of the Predictor™ hERG Fluorescence Polarizations (FP) Assays from Life Technologies. In the case of this assay principle, cardiomyocyte cell membranes having a certain proportion of Kv11.1 channels are isolated. A dye-labelled Kv11.1 binding partner gives a high fluorescence polarisation signal by interaction with the Kv11.1. In the case of displacement of the dye, a reduction in the fluorescence polarisation signal occurs.
The assay is carried out automatically as follows: 15 nl of the test substances (highest concentration: 10 mM, 10 concentrations: dilution factors 1:3.16, DMSO) are transferred into an empty microtitre plates having 384 wells by means of an acoustic pipetter. 3 μl of the isolated membranes are subsequently added. Membranes and test substances are incubated at 22° C. for 15 min (+/−5 min). In the next step, the dye-labelled binding partner is added, followed by incubation at 22° C. After incubation for two hours, the measurement of the fluorescence polarisation is carried out on an Envision multimode Reader. Measured raw data are standardised with the aid of Genedata Assay Analyzer. The 1050 and % effect values are calculated in Genedata Condoseo.

Kv11.1 (hERG) [3] = biological target: T1, Kv11.1 (hERG); assay: Kv11.1 (hERG) ion channel activity (patch clamp assay), HEK293 cells transfected with hERG gene; settings: hERG patch clamp assay (cells without asterisk)
Procedure: C) Kv11.1 (hERG) Ion Channel Activity (Patch Clamp Assay)
The patch-clamp measurement was carried out at room temperature in whole-cell configuration on human embryonic kidney cells (HEK293) which have been transfected in a stable manner with the hERG gene.
The whole-cell configurations were carried out using an automated patch clamp device (Patchliner™, Nanion Technologies, Munich). […] The glass chip has a hole of defined size to which the cell is transferred into the Gigaseal by application of a reduced pressure and brought into the whole-cell configuration. Buffer, cell suspension and test substances were added to microchannels of the chip using a Teflon-coated pipette. The cells were clamped to a holding potential of −80 mV. For measurement of substance-promoted inhibition of the Kv11.1 channel, the following voltage protocol was applied at 10-second intervals: 51 ms/−80 mV, 500 ms/+40 mV, 500 ms/−40 mV, 200 ms/−80 mV. The leakage current is subtracted by means of the P4 method. The cells were resuspended in extracellular buffer (EC) and applied to the chip. After the cell had been collected, the seal was improved by addition of a seal enhancer buffer. As soon as the whole-cell configuration had been reached, the seal enhancer buffer was washed out and replaced by extracellular buffer. The measurement started in EC for 1.5 min. DMSO (vehicle control, 0.1% of DMSO) was then applied, and the control current was recorded for 3 min. The test substance was subsequently added twice in the same concentration, and the potassium current was measured for 3.5 min in each case.
The reference substance used was the Kv11.1 (hERG) ion channel blocker quinidine. The effects of test substances and quinidine were standardised to the associated vehicle control. The effect on the Kv11.1 (hERG) channel activity was assessed from the potassium current at −40 mV. For the calculation, the current was evaluated for the respective final trace.
During the measurement, an aliquot of the test substance was taken for concentration determination. The sample was measured immediately by HPLC, and the final concentration was determined from a calibration curve.

T1 sequence (Q12809 whole entry): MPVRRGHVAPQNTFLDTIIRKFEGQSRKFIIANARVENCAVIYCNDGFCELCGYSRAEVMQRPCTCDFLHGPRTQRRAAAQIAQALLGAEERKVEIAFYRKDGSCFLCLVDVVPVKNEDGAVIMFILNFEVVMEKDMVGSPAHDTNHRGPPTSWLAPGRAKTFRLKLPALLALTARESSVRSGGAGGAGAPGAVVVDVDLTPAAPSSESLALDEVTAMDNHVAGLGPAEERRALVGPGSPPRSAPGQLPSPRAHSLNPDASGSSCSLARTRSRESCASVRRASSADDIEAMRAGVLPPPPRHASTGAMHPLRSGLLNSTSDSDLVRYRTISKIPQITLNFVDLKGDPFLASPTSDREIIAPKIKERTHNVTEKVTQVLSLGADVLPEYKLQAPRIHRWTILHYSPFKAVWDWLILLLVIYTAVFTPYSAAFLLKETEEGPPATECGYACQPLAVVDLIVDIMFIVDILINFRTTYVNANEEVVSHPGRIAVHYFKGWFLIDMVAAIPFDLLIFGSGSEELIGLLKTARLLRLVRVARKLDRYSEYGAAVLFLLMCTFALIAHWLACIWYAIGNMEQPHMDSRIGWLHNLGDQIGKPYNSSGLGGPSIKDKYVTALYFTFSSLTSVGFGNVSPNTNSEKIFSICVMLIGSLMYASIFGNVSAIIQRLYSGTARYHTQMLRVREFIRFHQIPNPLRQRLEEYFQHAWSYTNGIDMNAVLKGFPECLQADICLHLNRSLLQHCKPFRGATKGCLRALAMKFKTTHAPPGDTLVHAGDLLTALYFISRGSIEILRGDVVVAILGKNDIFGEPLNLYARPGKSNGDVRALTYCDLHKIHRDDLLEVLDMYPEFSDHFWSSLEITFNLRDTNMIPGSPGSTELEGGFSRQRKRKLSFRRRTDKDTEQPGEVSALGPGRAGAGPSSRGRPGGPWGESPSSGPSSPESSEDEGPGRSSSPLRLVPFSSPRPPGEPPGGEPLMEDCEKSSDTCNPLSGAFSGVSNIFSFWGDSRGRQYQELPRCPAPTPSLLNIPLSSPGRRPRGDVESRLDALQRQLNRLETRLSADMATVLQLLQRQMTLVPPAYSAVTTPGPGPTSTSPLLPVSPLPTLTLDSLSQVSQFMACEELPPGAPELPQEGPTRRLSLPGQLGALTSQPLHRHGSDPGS

Row | Structure (SMILES) | IC50 (DNA-PK) [nM] | IC50 [1] [nM] | Ki (Kv11.1 (hERG) [2]) [nM] | Ki (Kv11.1 (hERG) [3]; Ki [Kv1.11 hERG]) [nM] | Ki (Kv11.1 (hERG) [3]; read-out: Ki [Kv1.11 hERG]) [nM]
1 | [2H]C1([2H])OC([2H])([2H])C([2H])([2H])N(c2ccc3c(-c4cc(C(O)c5ccc(OC)nn5)c(Cl)cc4F)ncnc3c2)C1([2H])[2H] (single isomer, unassigned) [Example 262, [2-Chloro-4-fluoro-5-[7-(2,2,3,3,5,5,6,6-octadeuteriomorpholin-4-yl)quinazolin-4-yl]phenyl]-(6-methoxypyridazin-3-yl)methanol] |  |  | > 25000 |  | 
2 | COc1ccc(C(O)c2cc(-c3ncnc4cc(N5CCOCC5)cc(F)c34)c(F)cc2Cl)nn1 (single isomer, unassigned) [Example 263, [2-Chloro-4-fluoro-5-(5-fluoro-7-morpholin-4-yl-quinazolin-4-yl)-phenyl]-(6-methoxy-pyridazin-3-yl)-methanol] | 7 to 30 | 10000 to 30000 | > 25000 |  | 
3 | CNC(=O)C(c1ccc(F)c(-c2ncnc3cc(N4CCOCC4)ccc23)c1)c1ncccc1Cl (stereo not drawn) [Example 230, 2-(3-Chloro-pyridin-2-yl)-2-[4-fluoro-3-(7-morpholin-4-yl-quinazolin-4-yl)-phenyl]-N-methyl-acetamide] | 7 to 30 | 5000 to 10000 | 15000 to 25000 |  | 
4 | CNC(=O)C(c1ccc2nccn2n1)c1cc(-c2ncnc3cc(N4CCOCC4)ccc23)c(F)cc1Cl (stereo not drawn) [Example 236, 2-[2-Chloro-4-fluoro-5-(7-morpholin-4-yl-quinazolin-4-yl)-phenyl]-2-imidazo-[1,2-b]pyridazin-6-yl-N-methylacetamide] | > 30 | 5000 to 10000 | > 25000 |  | 
5 | CNC(=O)C(c1cc(-c2ncnc3cc(N4CCOCC4)ccc23)c(F)cc1Cl)c1nccnc1C (stereo not drawn) [Example 254, 2-[2-Chloro-4-fluoro-5-(7-morpholin-4-yl-quinazolin-4-yl)-phenyl]-N-methyl-2-(3-methyl-pyrazin-2-yl)acetamide] | 7 to 30 | 10000 to 30000 | > 25000 |  | 
6 | COc1ccc(C(O)c2ccc(F)c(-c3ncnc4cc(N5CCOCC5)cc(F)c34)c2)nn1 (stereo not drawn) [Example 255, [4-Fluoro-3-(5-fluoro-7-morpholin-4-yl-quinazolin-4-yl)-phenyl]-(6-methoxy-pyridazin-3-yl)-methanol] | 7 to 30 | < 500 | > 25000 |  | 
7 | COc1ccc(C(O)c2ccc(F)c(-c3ncnc4cc(N5CCOCC5)cc(F)c34)c2)nn1 (stereo not drawn) [Example 256, [4-Fluoro-3-(5-fluoro-7-morpholin-4-yl-quinazolin-4-yl)-phenyl]-(6-methoxy-pyridazin-3-yl)-methanol] | < 3 | < 500 | > 25000 |  | 
8 | COC(c1ccc(F)c(-c2ncnc3cc(N4CCOCC4)ccc23)c1)c1nccnc1C (stereo not drawn) [Example 352, 4-{2-Fluoro-5-[methoxy-(3-methyl-pyrazin-2-yl)methyl]-phenyl}-7-morpholin-4-ylquinazoline] | > 30 |  | > 25000 |  | 
9 | OC(c1ccc(F)c(-c2ncnc3cc(N4CCOCC4)ccc23)c1)c1ncccc1Cl (stereo not drawn) [Example 466, (3-Chloro-pyridin-2-yl)-[4-fluoro-3-(7-morpholin-4-yl-quinazolin-4-yl)-phenyl]methanol] | 7 to 30 | 500 to 5000 |  |  | 15000 to 25000
10 | Cc1cccnc1C(O)c1ccc(F)c(-c2ncnc3cc(N4CCOCC4)ccc23)c1 (stereo not drawn) [Example 472, [4-Fluoro-3-(7-morpholin-4-yl-quinazolin-4-yl)-phenyl]-(3-methyl-pyridin-2-yl)methanol] | 3 to 7 | < 500 |  |  | > 25000
11 | OC(c1cn2ccsc2n1)c1cc(-c2ncnc3cc(N4CCOCC4)ccc23)c(F)cc1F (stereo not drawn) [Example 474, [2,4-Difluoro-5-(7-morpholin-4-yl-quinazolin-4-yl)-phenyl]imidazo-[2,1-b]thiazol-6-yl-methanol] | > 30 | 10000 to 30000 |  | 10000 to 15000 | 
12 | OC(c1cccnn1)c1cc(-c2ncnc3cc(N4CCOCC4)ccc23)ccc1Cl (stereo not drawn) [Example 479, (2-Chloro-5-(7-morpholin-4-yl-quinazolin-4-yl)-phenyl]pyridazin-3-yl-methanol] | 3 to 7 | < 500 |  | 15000 to 25000 | 

Further lines, with some results ahead:

Row | IC50 (DNA-PK) [nM] | IC50 [1] [nM] | Structure (SMILES) | Ki (Kv11.1 (hERG) [2]) [nM] | Ki (Kv11.1 (hERG) [3]; Ki [Kv1.11 hERG]) [nM] | Ki (Kv11.1 (hERG) [3]; read-out: Ki [Kv1.11 hERG]) [nM]
13 | < 3 | < 500 | COc1nccnc1C(O)c1ccc(F)c(-c2ncnc3cc(N4CCOCC4)cc(F)c23)c1 (single isomer, unassigned) [Example 252, [4-Fluoro-3-(5-fluoro-7-morpholin-4-yl-quinazolin-4-yl)-phenyl]-(3-methoxy-pyrazin-2-yl)-methanol] | > 25000 |  | 
14 | < 3 | < 500 | Fc1cc(Cl)c(Cc2ccc3nccn3n2)cc1-c1ncnc2cc(N3CCOCC3)ccc12 [Example 235, 4-(4-Chloro-2-fluoro-5-imidazo[1,2-b]-pyridazin-6-ylmethyl - phenyl)-7-morpholin-4-ylquinazoline] | > 25000 |  | 
15 | < 3 | < 500 | Cc1nccnc1C(O)c1ccc(F)c(-c2ncnc3cc(N4CCOCC4)sc23)c1 (stereo not drawn) [Example 245, [4-Fluoro-3-(6-morpholin-4-yl-thieno[3,2-d}-pyrimidin-4-yl)-phenyl]-(3-methyl-pyrazin-2-yl)-methanol] | > 25000 |  | 
16 | 3 to 7 | 500 to 5000 | Cc1nccnc1C(O)c1ccc(F)c(-c2ncnc3cc(N4CCOCC4)sc23)c1 (stereo not drawn) [Example 246, [4-Fluoro-3-(6-morpholin-4-yl-thieno[3,2-d}-pyrimidin-4-yl)-phenyl]-(3-methyl-pyrazin-2-yl)-methanol] | > 25000 |  | 
17 | < 3 | < 500 | COc1nccnc1C(O)c1cc(-c2ncnc3cc(N4CCOCC4)cc(F)c23)c(F)cc1Cl (stereo not drawn) [Example 249, [2-Chloro-4-fluoro-5-(5-fluoro-7-morpholin-4-yl-quinazolin-4-yl)-phenyl]-(3-methoxy-pyrazin-2-yl)-methanol] | > 25000 |  | 
18 | 3 to 7 | 500 to 5000 | Cc1nccnc1[C@@H](O)c1ccc(F)c(-c2ncnc3cc(N4CCOCC4)cc(F)c23)c1 [Example 251, (S)-[4-fluoro-3-(5-fluoro-7-morpholin-4-ylquinazolin-4-yl)-phenyl]-(3-methyl-pyrazin-2-yl)-methanol] | > 25000 |  | 
19 | < 3 | < 500 | OC(c1ccc(F)c(-c2ncnc3cc(N4CCOCC4)ccc23)c1)c1ncccc1Cl (stereo not drawn) [Example 465, (3-Chloro-pyridin-2-yl)-[4-fluoro-3-(7-morpholin-4-yl-quinazolin-4-yl)-phenyl]methanol] |  | 15000 to 25000 | 
20 | 3 to 7 | < 500 | COc1nccnc1C(O)c1cc(-c2ncnc3cc(N4CCOCC4)ccc23)c(F)cc1F (stereo not drawn) [Example 467, [2,4-Difluoro-5-(7-morpholin-4-yl-quinazolin-4-yl)-phenyl]-(3-methoxy-pyrazin-2-yl)-methanol] |  |  | > 25000
21 | < 3 | < 500 | COc1nccnc1C(O)c1cc(-c2ncnc3cc(N4CCOCC4)ccc23)c(F)cc1Cl (stereo not drawn) [Example 468, [2-Chloro-4-fluoro-5-(7-morpholin-4-yl-quinazolin-4-yl)-phenyl]-(3-methoxy-pyrazin-2-yl)-methanol] |  | 15000 to 25000 | 
22 | 3 to 7 | < 500 | COc1cnc(C(O)c2ccc(F)c(-c3ncnc4cc(N5CCOCC5)ccc34)c2)c(Br)c1 (stereo not drawn) [Example 473, (3-bromo-5-methoxy-pyridin-2-yl)-[4-fluoro-3-(7-morpholin-4-yl-quinazolin-4-yl)-phenyl]methanol] |  | 15000 to 25000 | 
23 | < 3 | < 500 | OC(c1ccc(F)c(-c2ncnc3cc(N4CCOCC4)ccc23)c1)c1ncccc1OC(F)(F)F (stereo not drawn) [Example 475, [4-Fluoro-3-(7-morpholin-4-yl-quinazolin-4-yl)-phenyl]-(3-trifluoro-methoxypyridin-2-yl)-methanol] |  | 15000 to 25000 | 
24 | 3 to 7 | < 500 | OC(c1ccc(F)c(-c2ncnc3cc(N4CCOCC4)ccc23)c1)c1nccnc1C(F)(F)F (stereo not drawn) [Example 476, [4-Fluoro-3-(7-morpholin-4-yl-quinazolin-4-yl)-phenyl]-(3-trifluoro-methylpyrazin-2-yl)-methanol] |  |  | > 25000
25 | < 3 | < 500 | OC(c1ccc(F)c(-c2ncnc3cc(N4CCOCC4)ccc23)c1)c1ncccc1Br (stereo not drawn) [Example 478, (3-bromo-pyridin-2-yl)-[4-fluoro-3-(7-morpholin-4-yl-quinazolin-4-yl)-phenyl] methanol] |  |  | < 10000

— patent publication US9732094B2, “Arylquinazolines” (Merck Patent GmbH, priority 2013, dated 2017)
